Patent US5866511A, “Stabilized solutions of bromonitromethane and their use as biocides” (Great Lakes Chemical Corporation, priority 1997, dated 1999)
In brackets after ≈: the same amount, converted by molar mass. Where two headings read alike, the source gives them in different places.

How the values were obtained:
[1] = Storage stability of aqueous BNM concentrates (bromide ion concentration by ion selective electrodes over 57 days; gas chromatography); assay type: physicochemical
Procedure: Determination of enhanced formulation stability for solutions of bromonitromethane.
A study was performed to determine if aqueous concentrates of BNM could be prepared with adequate storage stability to make the material useful as a biocide. […] Less acidified solutions had faster degradation rates.
(§1) BNM (4.58 g, 91.4% assay) was dissolved in 100 mL of deionized water sample 1. A pH 2.37 solution was prepared by adding one drop of sulfuric acid to 100 mL DI water and then adding 4.60 g of the BNM sample 2. A pH 3.76 solution was prepared by adding one drop of 10% aq sodium hydrogen sulfate to 100 mL DI water and then adding 4.60 g of the BNM sample 3. A pH 7.91 solution was prepared by dissolving 4.60 g of the BNM in 100 mL of DI water. A total of 7.2 g of 16.4% NaOH was then added over six minutes to maintain the pH. That solution turned red, indicating the presence of the bromonitromethylate anion and was slowly becoming acidic before the initial bromide value was determined.
Each solution was measured for bromide ion concentration using ion selective electrodes over the course of 57 days to determine the degree of hydrolysis.
An acidified solution of bromonitromethane (BNM) is prepared by adding one drop of sulfuric acid to 100 ml distilled water and then adding 4.60 g of BNM (91.4% assay). The solution is sampled for gas chromatography assay at the beginning and end of these studies to confirm the BNM concentration. Aqueous solutions of BNM were stable when acidified with mineral acids to acidic pHs. The material hydrolyzed at a very slow rate giving a half-life of over ten years.
In a similar manner, acidified bromonitromethane solutions having pHs of about 1.0, 1.5, 2.0, 2.5, 3.0, 3.5 and 4.0 are prepared.

Pseudomonas aeruginosa [2] = test: Inhibition of bacterial growth in contaminated paint (MIC); assay type: cell-based; settings: for MIC: paint, 25° C., read-out: Minimum Inhibitory Concentration
Procedure: Water based paints are subject to microbial attack which could produce viscosity loss or offensive odors. Biocides are added to protect the paint from such degradation in the can. A paint sample was artificially contaminated with Pseudomonas aeruginosa, a bacterium which is frequently found in spoiled paint. […] The thermal treatment inactivates residual biocide present in the paint.
Acidified solutions of BNM (pH ranging from 1.5 to 3.5) are diluted with sterile water and added at various concentrations to the paint. Positive controls are established by the omission of BNM addition.
A sterile swab was dipped into the paint and samples are plated onto tryptone glucose extract agar (TGEA; Difco, Detroit, Mich.). Samples of contaminated paint are subsequently swabbed onto sterile TGEA after 1,2,3,7, and 14 days of incubation of 25° C. The plates are incubated for one week at 25° C. Any growth observed on the agar surface during the incubation period is noted. […] The minimum inhibitory concentration (MIC), defined as the lowest concentration of BNM which prevented bacterial growth in the paint, is determined for the inventive solutions.

[3] = system: Desulfovibrio desulfuricans; test: Inhibition of sulfate reducing bacterium in API broth (MIC); assay type: cell-based; settings: for MIC: read-out: Minimum Inhibitory Concentration
Procedure: API broth (Difco, Detroit, Mich.) is inoculated with the sulfate reducing bacterium (SRB) Desulfovibrio desulfuricans (10^4 cells/ml). Stable, acidified solutions of bromonitromethane (pH ranging from 1.5 to 3.6) are added to provide bromonitromethane at various concentrations to the SRB cultures. A positive control is constructed in the same fashion […] BNM addition.
The cultures are housed in a GasPak® jar (Becton Dickinson Microbiology Systems, Cockeysville, Md.) under anaerobic conditions (4-10% CO2, <1% O2) at ambient temperature. Cultures are checked weekly for a period of three weeks for visible […] growth indicative of SRB's. […] The minimum inhibitory concentration (MIC), defined as the lowest concentration of BNM which prevented bacterial growth in the API broth tubes, is determined.

Aspergillus niger = test: Inhibition of fungal growth in synthetic cooling water (MIC); assay type: cell-based, Aspergillus niger (ATCC 9642); settings: for MIC: 168 h, read-out: Minimum Inhibitory Concentration
Procedure: Industrial water presents a favorable environment for fungal growth. Fungi can cause many problems in industrial systems including damage to cooling tower wood fill and decks by delignification. Synthetic water is prepared according to the following formula: 0.2 mM MgSO4, 1.2 mM CaCl2 and 1.0 mM NaHCO3. Cooling water presents a favorable environment for microbiological growth. Fungi can damage the cooling tower wood fill and decks by delignification. Synthetic cooling water (CW) is prepared according to the following formula: 0.2 mM MgSO4, 1.2 mM CaCl2, and 1.0 mM NaHCO. The pH is adjusted to either 6 or 8 with either H2 SO4 or NaOH. The resulting solution is then sterilized by passing through a 0.2 μm filter. Various concentrations of acidified BNM solution (pH ranging from 1.5 to 4.0) are added to aliquots of sterile synthetic water. A positive control is prepared by omitting the BNM.
Three day old cultures of Aspergillus niger (ATCC 9642) are harvested from the surface of potato dextrose agar (Difco, Detroit, Mich.) supplemented with tartaric acid. The samples are dosed with A. niger to achieve a concentration of 10^3 CFU/ml. These samples are incubated for one week at ambient temperature. The cultures are plated onto PDA in order to recover any surviving mold. These plates are incubated for three days at ambient temperature. […] The minimum inhibitory concentration (MIC), defined as the lowest concentration of BNM which prevented fungal growth on the PDA plates, is determined.

Anabeana = test: Inhibition of algal growth in Allens medium (MIC), Anabeana; assay type: cell-based
Procedure: (§2) Pure cultures of the algal genera Anabeana, Chlamydomonas, and Chlorella are used to inoculate Allens medium at pH 7.5 achieving a final concentration of 10^4 cells/ml. All tests are performed on pure cultures. Various concentrations of acidified BNM solution (for each pH across the pH range of 1.5 to 3.5) are added to the culture tubes. Positive controls are established by the omission of BNM.
(§3) The algal cultures are housed in a light box (400 ft. candles; light source--cool white fluorescent tubes; 16 h on/8 h off cycles; 22°-26° C.) for three weeks. The cultures are read weekly noting any turbidity and green coloration of the medium which would indicate a positive result. […] The minimum inhibitory concentration was determined, with representative results being shown below.

Chlamydomonas = test: Inhibition of algal growth in Allens medium (MIC), Chlamydomonas; assay type: cell-based
Procedure: as §2, §3

Chlorella = test: Inhibition of algal growth in Allens medium (MIC), Chlorella; assay type: cell-based
Procedure: as §2, §3

Pseudomonas aeruginosa [4] = test: Inhibition of aerobic bacteria in borate buffer (MIC, at least 90% decrease); assay type: cell-based, Pseudomonas aeruginosa (ATCC 278853)
Procedure: Borate buffer (25 mM) is adjusted to either pH 7 or 8. The buffer was sterilized by passing through a 0.2 μm filter. Pseudomonas aeruginosa (ATCC 278853) is added to aliquots of the sterile buffer to achieve a final concentration of 10^6 cells/ml. This population is confirmed by serially diluting a sample in sterile phosphate buffer (0.3 mM) and plating onto tryptone glucose extract agar (TGEA; Difco, Detroit, Mich.). Acidified solutions of bromonitromethane are added at various concentrations to the test cultures. Solutions acidified with acids to pHs of between 1.5 and 3.5 are prepared and tested. Positive controls are established by omitting BNM from the test samples.
Following 3 and 24 hour exposure periods at ambient temperature, the resulting test suspensions are diluted and plated as previously described. All plates are enumerated following an incubation period of 24 hr. at 37° C. The minimum inhibitory concentration is defined as the lowest concentration which decreased the microbial population by at least 90% over the period tested.

Pseudomonas aeruginosa [5] = test: Inhibition of microbial growth in alkaline paper pulp (MIC, at least 90% decrease); assay type: cell-based, Pseudomonas aeruginosa (ATCC 27853); settings: read-out: Minimum Inhibitory Concentration
Procedure: Microbial growth at various points in a paper making system could produce a slime layer which could drop onto the paper sheet causing product damage and machine downtime due to breaks. Biocides are added to keep the microbial growth in check throughout the system. A pulp slurry (1.25% dry basis) was prepared in sodium phosphate buffer (200 mM, pH 8). The slurry is sterilized by autoclaving at 121° C. for 20 min. Pseudomonas aeruginosa (ATCC 27853) is added to the sterile pulp slurries to achieve a final concentration of 10^6 cells/ml. This population is confirmed by serially diluting a sample in sterile phosphate buffer (0.3 mM) and plating onto tryptone glucose extract agar (TGEA; Difco, Detroit, Mich.). Bromonitromethane is added at various concentrations to the test cultures. Controls are established by omitting BNM from the test samples. Following a 3 and 24 hr. exposure period at ambient temperature, the resulting test suspensions are diluted and plated as previously described. All plates are enumerated following an incubation period of 24 hr. at 37° C. The minimum inhibitory concentration is defined as the lowest concentration which decreased the microbial population by at least 90% over the period tested.

[6] = CO2 off-gassing during storage of solutions; assay type: physicochemical; settings: stabilized (acidified) solutions, storage under standard conditions
Procedure: as §1
The solutions of the present invention provide the additional benefit of minimizing off-gassing of CO2 during storage of the solution.

all the organisms = settings: quoted from Clark et al.; attributed to volatility; cited from earlier work
[7] = 504 h, Allens medium pH 7.5, three weeks, read-out: Minimum Inhibitory Concentration

## O=[N+]([O-])CBr [Bromonitromethane, bromonitromethane]
[1]; acidified with strong acids
  optimum pH for stability: about 2.3
[1]; most stable solution, acidified with H2SO4 to pH 2.3, 72000 min
  degradation rate: 0.4 % BNM per 50 days
[1]; non-acidified solutions
  hydrolysis (in words): hydrolyze rapidly
Pseudomonas aeruginosa [2]; 24 h, 1 day incubation
  MIC: 2 to 5 µg/mL (≈ 14.3 to 35.7 µM)
Pseudomonas aeruginosa [2]; 48 h, 2 days incubation
  MIC: 2 to 5 µg/mL (≈ 14.3 to 35.7 µM)
Pseudomonas aeruginosa [2]; 72 h, 3 days incubation
  MIC: 2 to 5 µg/mL (≈ 14.3 to 35.7 µM)
Pseudomonas aeruginosa [2]; 168 h, 7 days incubation
  MIC: 2 to 5 µg/mL (≈ 14.3 to 35.7 µM)
Pseudomonas aeruginosa [2]; 336 h, 14 days incubation
  MIC: 2 to 5 µg/mL (≈ 14.3 to 35.7 µM)
Pseudomonas aeruginosa [2]; acidified BNM solutions
  growth inhibition (in words): effective for inhibiting the growth
[3]; 168 h
  MIC: < 0.1 µg/mL
[3]; 336 h, API broth, anaerobic, pH = 2.37, 2 weeks
  MIC: 0.1 to 0.5 µg/mL (≈ 0.715 to 3.57 µM)
[3]; 504 h, API broth, anaerobic, pH = 2.37, 3 weeks
  MIC: 0.1 to 0.5 µg/mL (≈ 0.715 to 3.57 µM)
[3]; acidified BNM solutions
  growth inhibition (in words): effective for inhibiting the growth
Aspergillus niger; synthetic cooling water pH 6, one week
  MIC: < 1 µg/mL
Aspergillus niger; synthetic cooling water pH 8, one week
  MIC: 1 to 5 µg/mL (≈ 7.15 to 35.7 µM)
Aspergillus niger; acidified BNM solutions
  growth inhibition (in words): effective for inhibiting the growth
Anabeana; [7]
  MIC: 0.5 to 1 µg/mL (≈ 3.57 to 7.15 µM)
Anabeana; acidified BNM solutions, Anabeana
  growth inhibition (in words): effective for inhibiting the growth
Chlamydomonas; [7]
  MIC: 0.1 to 0.5 µg/mL (≈ 0.715 to 3.57 µM)
Chlamydomonas; acidified BNM solutions
  growth inhibition (in words): effective for inhibiting the growth
Chlorella; [7]
  MIC: 0.5 to 1 µg/mL (≈ 3.57 to 7.15 µM)
Chlorella; acidified BNM solutions
  growth inhibition (in words): effective for inhibiting the growth
Pseudomonas aeruginosa [4]; 3 h, pH 7, read-out: Minimum Inhibitory Concentration
  MIC: 0.6 to 3.2 µg/mL (≈ 4.29 to 22.9 µM)
Pseudomonas aeruginosa [4]; borate buffer pH 7, 24 hour exposure, ≥90% decrease, read-out: Minimum Inhibitory Concentration
  MIC: 0.3 to 0.6 µg/mL (≈ 2.14 to 4.29 µM)
Pseudomonas aeruginosa [4]; borate buffer pH 8, 3 hour exposure, ≥90% decrease, read-out: Minimum Inhibitory Concentration
  MIC: 0.6 to 3.2 µg/mL (≈ 4.29 to 22.9 µM)
Pseudomonas aeruginosa [4]; borate buffer pH 8, 24 hour exposure, ≥90% decrease, read-out: Minimum Inhibitory Concentration
  MIC: 0.3 to 0.6 µg/mL (≈ 2.14 to 4.29 µM)
Pseudomonas aeruginosa [5]; pulp slurry pH 8, 3 hr exposure
  MIC: 1 to 5 µg/mL (≈ 7.15 to 35.7 µM)
Pseudomonas aeruginosa [5]; pulp slurry pH 8, 24 hr exposure
  MIC: < 1 µg/mL
[6]
  CO2 off-gassing vs non-stabilized solutions: substantially reduce off-gassing (CO2)
All the organisms
  inhibition of organisms (in words): inhibited all the organisms . . . but gave inconsistent results
